Data reported in patent US9113629B2, “4-amino-6-(4-substituted-phenyl)-picolinates and 6-amino-2-(4-substituted-phenyl)-pyrimidine-4-carboxylates and their use as herbicides” (DOW AGROSCIENCES LLC, priority 2013, dated 2015).
Read-outs that look alike come from different tables or passages of the source.

Key:
[1] = system: Key Broadleaf Weed and Crop Species; test: Post-emergent Test II herbicidal activity (Table 5); type: in vivo; conditions: post-emergence, 336 h, 14 days after application; for pest or weed control at 70 g/ha: application rate 70 g ai/ha; for pest or weed control at 140 g/ha: application rate 140 g ai/ha
In short: (§1)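 Compounds, dissolved in 97:3 acetone/DMSO and diluted into an aqueous carrier containing crop oil concentrate and Triton X-155, are applied over the top of young plants at 187 L/ha. Injury is scored visually at 14 d, 0% meaning no effect and 100% complete kill.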

[2] = system: Key Grass and Sedge Weeds as well as Grass Crops; test: Post-emergent Test II herbicidal activity (Table 6); type: in vivo; conditions: post-emergence, 336 h; for pest or weed control at 70 g/ha: 70 g ai/ha; for pest or weed control at 140 g/ha: 140 g ai/ha
In short: as §1

[3] = ABUTH: velvetleaf (Abutilon theophrasti), read-out: Visual Growth Reduction (%) 14 Days After Application, ABUTH
[4] = AMARE: redroot pigweed (Amaranthus retroflexus), read-out: Visual Growth Reduction (%) 14 Days After Application, AMARE
[5] = BRSNN: oilseed-rape, canola (Brassica napus), read-out: Visual Growth Reduction (%) 14 Days After Application, BRSNN
[6] = CHEAL: lambsquarters (Chenopodium album), read-out: Visual Growth Reduction (%) 14 Days After Application, CHEAL
[7] = EPHHL: wild poinsettia (Euphorbia heterophylla), read-out: Visual Growth Reduction (%) 14 Days After Application, EPHHL
[8] = HELAN: sunflower (Helianthus annuus), read-out: Visual Growth Reduction (%) 14 Days After Application, HELAN
[9] = VIOTR: wild pansy (Viola tricolor), read-out: Visual Growth Reduction (%) 14 Days After Application, VIOTR
[10] = CYPES: yellow nutsedge (Cyperus esculentus), read-out: Visual Growth Reduction (%) 14 Days After Application, CYPES
[11] = DIGSA: crabgrass (Digitaria sanguinalis), read-out: Visual Growth Reduction (%) 14 Days After Application, DIGSA
[12] = ECHCG: barnyardgrass (Echinochloa crus-galli), read-out: Visual Growth Reduction (%) 14 Days After Application, ECHCG
[13] = ORYSA: rice (Oryza sativa), crop, read-out: Visual Growth Reduction (%) 14 Days After Application, ORYSA
[14] = SETFA: giant foxtail (Setaria faberi), read-out: Visual Growth Reduction (%) 14 Days After Application, SETFA
[15] = SORVU: grain sorghum (Sorghum vulgare), read-out: Visual Growth Reduction (%) 14 Days After Application, SORVU
[16] = TRZSS (wheat, Triticum aestivum), crop, read-out: Visual Growth Reduction (%) 14 Days After Application, TRZSS
[17] = ZEAMX: maize, corn (Zea mays), crop, read-out: Visual Growth Reduction (%) 14 Days After Application, ZEAMX

Row | SMILES | pest or weed control at 70 g/ha [1, 3] | pest or weed control at 140 g/ha [1, 3] | pest or weed control at 70 g/ha [1, 4] | pest or weed control at 140 g/ha [1, 4] | pest or weed control at 70 g/ha [1, 5] | pest or weed control at 140 g/ha [1, 5] | pest or weed control at 70 g/ha [1, 6] | pest or weed control at 140 g/ha [1, 6] | pest or weed control at 70 g/ha [1, 7] | pest or weed control at 140 g/ha [1, 7] | pest or weed control at 70 g/ha [1, 8] | pest or weed control at 140 g/ha [1, 8] | pest or weed control at 70 g/ha [1, 9] | pest or weed control at 140 g/ha [1, 9] | pest or weed control at 70 g/ha [2, 10] | pest or weed control at 140 g/ha [2, 10] | pest or weed control at 70 g/ha [2, 11] | pest or weed control at 140 g/ha [2, 11] | pest or weed control at 70 g/ha [2, 12] | pest or weed control at 140 g/ha [2, 12] | other results
1 | COc1c(N)nc(-c2ccc(Br)cc2F)nc1C(=O)O [Compound 46] | 95 to 100% | 95 to 100% | 85 to 94% | 95 to 100% | 95 to 100% | 95 to 100% | 95 to 100% | 95 to 100% | 95 to 100% | 95 to 100% | 85 to 94% | 95 to 100% | 45 to 59% | 95 to 100% | 95 to 100% | 95 to 100% | 45 to 59% | 60 to 74% | 85 to 94% | 85 to 94% | pest or weed control at 70 g/ha [2, 13]: 0 to 29%; pest or weed control at 140 g/ha [2, 13]: 0 to 29%; pest or weed control at 70 g/ha [2, 14]: 75 to 84%; pest or weed control at 140 g/ha [2, 14]: 85 to 94%; pest or weed control at 70 g/ha [2, 15]: 45 to 59%; pest or weed control at 140 g/ha [2, 15]: 60 to 74%; pest or weed control at 70 g/ha [2, 16]: 45 to 59%; pest or weed control at 140 g/ha [2, 16]: 60 to 74%; pest or weed control at 70 g/ha [2, 17]: 45 to 59%; pest or weed control at 140 g/ha [2, 17]: 45 to 59%; melting point: 133 to 135 °C
2 | C#Cc1ccc(-c2nc(C(=O)O)c(Cl)c(N)c2F)c(F)c1F [Compound 50] | 60 to 74% | 60 to 74% | 0 to 29% | 0 to 29% | 0 to 29% | 0 to 29% | 0 to 29% | 0 to 29% | 45 to 59% | 95 to 100% | 45 to 59% | 60 to 74% | 0 to 29% | 0 to 29% | 0 to 29% | 0 to 29% | 0 to 29% | 45 to 59% | 45 to 59% | 75 to 84% | pest or weed control at 70 g/ha [2, 13]: 0 to 29%; pest or weed control at 140 g/ha [2, 13]: 0 to 29%; pest or weed control at 70 g/ha [2, 14]: 30 to 44%; pest or weed control at 140 g/ha [2, 14]: 45 to 59%; pest or weed control at 70 g/ha [2, 15]: 0 to 29%; pest or weed control at 140 g/ha [2, 15]: 0 to 29%; pest or weed control at 70 g/ha [2, 16]: 0 to 29%; pest or weed control at 140 g/ha [2, 16]: 0 to 29%; pest or weed control at 70 g/ha [2, 17]: 95 to 100%; pest or weed control at 140 g/ha [2, 17]: 95 to 100%; melting point: 174 to 176 °C
3 | COC(=O)c1nc(-c2ccc(Br)cc2F)c(F)c(N)c1Cl [Compound 52] | 95 to 100% | 95 to 100% | 95 to 100% | 95 to 100% | 95 to 100% | 95 to 100% | 95 to 100% | 95 to 100% | 95 to 100% | 95 to 100% | 95 to 100% | 95 to 100% | 95 to 100% | 95 to 100% | 95 to 100% | 95 to 100% | 85 to 94% | 85 to 94% | 60 to 74% | 75 to 84% | pest or weed control at 70 g/ha [2, 13]: 0 to 29%; pest or weed control at 140 g/ha [2, 13]: 0 to 29%; pest or weed control at 140 g/ha [2, 14]: 85 to 94%; pest or weed control at 70 g/ha [2, 15]: 95 to 100%; pest or weed control at 140 g/ha [2, 15]: 95 to 100%; pest or weed control at 70 g/ha [2, 16]: 30 to 44%; pest or weed control at 140 g/ha [2, 16]: 30 to 44%; pest or weed control at 70 g/ha [2, 17]: 95 to 100%; pest or weed control at 140 g/ha [2, 17]: 95 to 100%; melting point: 146 to 148 °C
4 | C#Cc1ccc(-c2nc(N)c(OC)c(C(=O)OC)n2)c(F)c1 [Compound 59] | 0 to 29% | 0 to 29% | 0 to 29% | 0 to 29% | 30 to 44% | 45 to 59% | 0 to 29% | 60 to 74% | 0 to 29% | 0 to 29% | 60 to 74% | 60 to 74% | 0 to 29% | 0 to 29% | 0 to 29% | 0 to 29% | 0 to 29% | 0 to 29% | 0 to 29% | 0 to 29% | pest or weed control at 70 g/ha [2, 13]: 0 to 29%; pest or weed control at 140 g/ha [2, 13]: 0 to 29%; pest or weed control at 70 g/ha [2, 14]: 0 to 29%; pest or weed control at 140 g/ha [2, 14]: 0 to 29%; pest or weed control at 70 g/ha [2, 15]: 0 to 29%; pest or weed control at 140 g/ha [2, 15]: 0 to 29%; pest or weed control at 70 g/ha [2, 16]: 0 to 29%; pest or weed control at 140 g/ha [2, 16]: 0 to 29%; pest or weed control at 70 g/ha [2, 17]: 0 to 29%; pest or weed control at 140 g/ha [2, 17]: 0 to 29%; melting point: 203 to 205 °C
